Experimental data as given in article PMC12406255, “Engineering Peptide Modulators for T‑Cell Migration by Structural Scaffold Matching” (Journal of Medicinal Chemistry, 2025).
Like-named read-outs stand apart in the source and are kept apart here. Positions of bridges follow the written chain, without caps; N, C: chain ends. Non-standard residues stand in square brackets, D forms with d. Residues, ends and D or L forms follow the SMILES beside them. Nle = CCCC[C@H](N)C(=O)O

Key:
CD3+ lymphocytes = experiment: cells; assay type: cell-based, human; conditions: for % Inhibition of cell migration compared to control, CD3+: normalized to untreated control, mean ± SEM of 4-6 experiments
Protocol: 1 Transwell-based migration assay to study lymphocyte transendothelial migration. (A) The general principle of the transwell migration assay is depicted. Endothelial cells (EC) are seeded in transwell inserts and are incubated for 2 days to form an EC monolayer. On the day before the assay, the ECs are cytokine-stimulated to induce the expression of adhesion molecules. In the migration assay, human peripheral blood mononuclear cells (PBMC) are placed into the donor compartment of the transwell setup. After 4 h of incubation time, the migrated cells are harvested from the receiver compartment, stained with fluorescent antibodies and counted using flow cytometry. (B) PBMCs were preincubated with S1P for 1.5 h and then transferred into the donor compartment on top of the EC monolayer. […] Data are shown as mean ± SD of 3 to 5 independent experiments.
(§1) Transwell migration assays were performed similarly as published previously. HMEC-1 cells were seeded at a density of 75,000 cells per well in transwell inserts. Three days after cell seeding, the medium was changed, and the cells were stimulated with 100 ng/mL TNF-α and 20 ng/mL IFN-γ for 16–18 h. On the day of the assay, cells were washed with migration medium (serum-free RPMI medium supplemented with 0.1% BSA) to remove residual cytokines and starved for at least 1 h at 37 °C in migration medium. PBMC were starved for at least 1.5 h in migration medium before addition to the EC. For S1P and lifitegrast-treated samples, the PBMC were preincubated for at least 1.5 h at 37 °C with the ligands before addition to the EC. Pepitem and other peptides were added onto the EC monolayer and preincubated for 15–30 min at 37 °C before the addition of the PBMC. 200,000 PBMC per well were added directly on top of the EC prestimulated with pepitem or other peptides to reach a final volume of 150 μL in the donor compartments. The receiver compartments of the wells were filled with 600 μL RPMI with 20% FBS. After 4 h of migration at 37 °C, the receiver compartment with the migrated cells was collected. The migrated cells were stained with the indicated antibodies: CD3-APC (clone: OKT3, lot: B400127), CD4-PE (clone: OKT4. lot: B379180), CD8-FITC (clone: HIT8a, lot: B370193) from Biolegend and CD3-VioGreen (clone: REA613, lot: 5240502518), CD45RO-FITC (clone: REA611, lot: 5240502519), CD4-PerCP-Vio700 (clone: REA623, lot: 5240506702), CXCR3 PE-Vio615 (clone: REA232, lot: 5240506722), CD196-APC (clone: REA190, lot: 5240506717), CD8-APC-Vio770 (clone: REA734, lot: 5240303993) and CD45RO-PEVio616 (clone: REA611, lot: 5231102514) from Miltenyi Biotec (Bergisch Gladbach, Germany) and counted using precision counting beads (Biolegend) on a CytoflexS flow cytometer (BeckmanCoulter). Data was analyzed using CytExpert (Version 2.4). T cells were gated as CD3^+ cells, T cell subsets were gated as CD4^+ (CD3^+, CD4^+), CD8^+ (CD3^+, CD8^+), memory CD4^+ (CD3^+, CD4^+, CD45RO^+), memory CD8^+ (CD3^+, CD8^+, CD45RO^+) and Th1 cells (CD3^+, CD4^+, CXCR3^+, CCR6^–).
(§2) Data were analyzed using GraphPad Prism software. EC50 values were calculated by three-parameter nonlinear regression analysis. For this, the data points were normalized to the number of migrated cells in untreated (buffer) control samples (100%), and the regression was fitted with the top constraint to 100 and the slope fixed to 1. Statistical significance is indicated in graphs as n.s. not significant, * p < 0.05; ** p < 0.01; *** p < 0.001. The statistical tests used are indicated in the respective figure captions.

[1] = tested on: CD4+ lymphocytes (CD3+, CD4+); assay type: cell-based, human; conditions: normalized to untreated control, mean ± SEM of 4-6 experiments
Protocol: as §1, §2

[2] = tested on: CD8+ lymphocytes (CD3+, CD8+); assay type: cell-based, human; conditions: normalized to untreated control, mean ± SEM of 4-6 experiments
Protocol: as §1, §2

[3] = tested on: memory CD4+ cells (CD3+, CD4+, CD45RO+); assay type: cell-based, human; conditions: normalized to untreated control, mean ± SEM of 4-6 experiments
Protocol: as §1, §2

[4] = tested on: memory CD8+ cells (CD3+, CD8+, CD45RO+); assay type: cell-based, human; conditions: normalized to untreated control, mean ± SEM of 4-6 experiments
Protocol: as §1, §2

Serum stability assay = assay type: in vitro ADME; conditions: human serum of healthy donors, lipids removed by centrifugation, 37 °C, peptide 30-60 μM from 10-fold stock in PBS, followed over 48 h, urea/TFA quench, analytical RP-HPLC peak area vs time 0, one-phase decay fit; mean ± SD, n = 2 (pepitem n = 5); read-out: Serum t 1/2 (converted)
Protocol: Stability of peptides in human serum was measured similarly to that previously described. In short, fresh blood from healthy donors was collected in serum collection tubes (Clot Activator Tube, Becton Dickinson, Plymouth, United Kingdom, […]) and incubated at 4 °C for 2 h to allow blood clotting. The serum was separated by centrifugation at 1000 × g for 10 min. To remove lipids from the serum, an additional centrifugation step was performed at 15,000 × g for 15 min at 4 °C, after which the serum was used for the stability assays. For this, the serum was prewarmed for 10 min at 37 °C before the addition of the test compounds. Peptides were prepared at a 10-fold concentration in PBS and diluted to a final concentration between 60 and 30 μM with the serum. The serum-peptide reaction mix was incubated at 37 °C, and 40 μL aliquots were taken at the indicated time points. To stop the reaction, samples were mixed with 40 μL of 6 M urea for 10 min on ice, followed by precipitation of serum proteins by the addition of 40 μL of 20% TFA and incubation for at least 10 min on ice. The precipitate was pelleted at 15,000 × g for 15 min, and 90 μL of the supernatant was freeze-dried. The dry material was resuspended in HPLC solvent A (0.1% TFA in ddH2O). Peptide quantification was performed using analytical HPLC. The remaining peptide relative to the starting point (time point 0) was calculated by peak integration to determine the area under the peak at the designated time points and further calculated in comparison to time point 0 min, which was set as 100%. To calculate the half-life of the peptides in human serum, data points were fitted with a one-phase decay equation.

SMILES | % Inhibition of cell migration compared to control, CD3+ (CD3+ lymphocytes; 0.1 μM) | % Inhibition of cell migration compared to control, CD3+ (CD3+ lymphocytes; 1 μM) | effects on T-lymphocyte migration (in words) (CD3+ lymphocytes; two concentrations (0.1 and 1 μM), equal to untreated control) | % Inhibition of cell migration compared to control, CD4+ ([1]; 0.1 μM) | % Inhibition of cell migration compared to control, CD4+ ([1]; 1 μM) | % Inhibition of cell migration compared to control, CD8+ ([2]; 0.1 μM) [%] | % Inhibition of cell migration compared to control, CD8+ ([2]; 1 μM) | % Inhibition of cell migration compared to control, Memory CD4+ ([3]; 0.1 μM) | % Inhibition of cell migration compared to control, Memory CD4+ ([3]; 1 μM) | % Inhibition of cell migration compared to control, Memory CD8+ ([4]; 0.1 μM) [%] | % Inhibition of cell migration compared to control, Memory CD8+ ([4]; 1 μM) | half-life (Serum stability assay) [h]
CCCC[C@@H]1NC(=O)[C@H](C(C)C)NC(=O)[C@H](CCCCN)NC(=O)[C@@H](NC(=O)[C@H](CCC(N)=O)NC(=O)[C@H](CCC(=O)O)NC(C)=O)CSSC[C@@H](C(=O)N[C@@H](CCC(=O)O)C(=O)N[C@@H](CCCCN)C(N)=O)NC(=O)[C@H](CC(N)=O)NC(=O)[C@H](CC(=O)O)NC(=O)[C@H](CC(C)C)NC(=O)[C@@H]2CSSC[C@H](NC1=O)C(=O)N[C@@H](Cc1ccc(O)cc1)C(=O)N[C@@H](C)C(=O)N[C@@H](CCC(N)=O)C(=O)N[C@@H](CCCNC(=N)N)C(=O)N[C@@H](Cc1c[nH]cn1)C(=O)N[C@@H](CO)C(=O)N[C@@H](CO)C(=O)N1CCC[C@H]1C(=O)N[C@@H](CCC(=O)O)C(=O)N[C@@H](CC(C)C)C(=O)N[C@@H](CC(C)C)C(=O)N[C@@H](CCCNC(=N)N)C(=O)N[C@@H](CCCNC(=N)N)C(=O)N2 [VhTI variant, reference compound] (Ac-EQCKV[Nle]CYAQRHSSPELLRRCLDNCEK-NH2; disulfide 3-25, 7-21) | –3.9 ± 7.0% | –5.2 ± 10.7% | no effects | –7.8 ± 9.4% | –6.7 ± 7.0% | 1.6 ± 8.5 | –2.8 ± 15.8% | –3.5 ± 2.4% | –11.6 ± 13.2% | 4.7 ± 7.4 | –11.6 ± 7.2% | 15.4 ± 12.9
CCCC[C@@H]1NC(=O)[C@H](C(C)C)NC(=O)[C@H](CCCCN)NC(=O)[C@@H](NC(=O)[C@H](CCC(N)=O)NC(=O)[C@H](CCC(=O)O)NC(C)=O)CSSC[C@@H](C(=O)N[C@@H](CCC(=O)O)C(=O)N[C@@H](CCCCN)C(N)=O)NC(=O)[C@H](CC(N)=O)NC(=O)[C@H](CC(=O)O)NC(=O)[C@H](CC(C)C)NC(=O)[C@@H]2CSSC[C@H](NC1=O)C(=O)N[C@@H](Cc1ccc(O)cc1)C(=O)N[C@@H](CCC(=O)O)C(=O)N[C@@H](CCC(N)=O)C(=O)NCC(=O)N[C@@H](C)C(=O)N[C@@H](CCC(=O)O)C(=O)N[C@@H](CC(C)C)C(=O)N1CCC[C@H]1C(=O)N[C@@H](CCC(=O)O)C(=O)N[C@@H](CC(C)C)C(=O)N[C@@H](CC(C)C)C(=O)N[C@@H](CCCNC(=N)N)C(=O)N[C@@H](CCCNC(=N)N)C(=O)N2 [VhTI-pep 3] (Ac-EQCKV[Nle]CYEQGAELPELLRRCLDNCEK-NH2; disulfide 3-25, 7-21) | 1.5 ± 7.6% | 4.6 ± 10.6% | – | –8.9 ± 18.1% | 10.8 ± 10.1% | 10.4 ± 11.2 | 14.0 ± 13.8% | –8.7 ± 3.4% | 11.7 ± 10.6% | 3.9 ± 9.7 | 3.0 ± 11.6% | > 48
CCCC[C@@H]1NC(=O)[C@H](C(C)C)NC(=O)[C@H](CCCCN)NC(=O)[C@@H](NC(=O)[C@H](CCC(N)=O)NC(=O)[C@H](CCC(=O)O)NC(C)=O)CSSC[C@@H](C(=O)N[C@@H](CCC(=O)O)C(=O)N[C@@H](CCCCN)C(N)=O)NC(=O)[C@H](CC(N)=O)NC(=O)[C@H](CC(=O)O)NC(=O)[C@H](CC(C)C)NC(=O)[C@@H]2CSSC[C@H](NC1=O)C(=O)N[C@@H](Cc1ccc(O)cc1)C(=O)N[C@@H](CCC(=O)O)C(=O)N[C@@H](CCC(N)=O)C(=O)NCC(=O)N[C@@H](C)C(=O)N[C@@H](CC(C)C)C(=O)N[C@@H](CO)C(=O)N1CCC[C@H]1C(=O)N[C@@H](CCC(=O)O)C(=O)N[C@@H](CC(C)C)C(=O)N[C@@H](CC(C)C)C(=O)N[C@@H](CCCNC(=N)N)C(=O)N[C@@H](CCCNC(=N)N)C(=O)N2 [VhTI-pep 5] (Ac-EQCKV[Nle]CYEQGALSPELLRRCLDNCEK-NH2; disulfide 3-25, 7-21) | 18.0 ± 6.2% | 28.4 ± 7.4% | – | 16.2 ± 7.7% | 33.5 ± 5.7% | 20.8 ± 6.8 | 24.8 ± 12.8% | 11.5 ± 13.6% | 28.6 ± 8.8% | 4.7 ± 10.1 | 14.0 ± 13.4% | > 48
